Results published in PubChem BioAssay AID2060496 (Molecular Pharmacology Branch, DTP, NCI, 2025).

Test system: 276233-004-R-J1-PDC complex spheroid viability
Test: Anticancer human tumor 276233-004-R-J1-PDC patient-derived colon adenocarcinoma cell line growth inhibition [GQUAD]
Settings: for IC50: curve of first compound; for viability, T/C: stronger effect = lower value
In short: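 Tumor cells were grown as complex spheroids with HUVEC endothelial cells and mesenchymal stem cells as stroma. G-quadruplex stabilizers were combined with targeted agents over half-log dilutions from near the clinical Cmax, or from 10 microM.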

[1] = second compound 0.0316 µM, first compound 0.0316 µM
[2] = second compound 0.0316 µM, first compound 0.316 µM
[3] = second compound 0.1 µM, first compound 0.0316 µM
[4] = second compound 0.1 µM, first compound 0.316 µM
[5] = second compound 0.316 µM, first compound 0.0316 µM
[6] = second compound 0.316 µM, first compound 0.316 µM
[7] = second compound 1 µM, first compound 0.0316 µM
[8] = second compound 1 µM, first compound 0.316 µM
[9] = second compound 3.16 µM, first compound 0.0316 µM
[10] = second compound 3.16 µM, first compound 0.316 µM
[11] = second compound 10 µM, first compound 0.0316 µM
[12] = second compound 10 µM, first compound 0.316 µM
[13] = second compound 0.0316 µM, first compound 0.1 µM
[14] = second compound 0.0316 µM, first compound 1 µM
[15] = second compound 0.0316 µM, first compound 3.16 µM
[16] = second compound 0.0316 µM, first compound 10 µM
[17] = second compound 0.1 µM, first compound 0.1 µM
[18] = second compound 0.1 µM, first compound 1 µM
[19] = second compound 0.1 µM, first compound 3.16 µM
[20] = second compound 0.1 µM, first compound 10 µM
[21] = second compound 0.316 µM, first compound 0.1 µM
[22] = second compound 0.316 µM, first compound 1 µM
[23] = second compound 0.316 µM, first compound 3.16 µM
[24] = second compound 0.316 µM, first compound 10 µM
[25] = second compound 1 µM, first compound 0.1 µM
[26] = second compound 1 µM, first compound 1 µM
[27] = second compound 1 µM, first compound 3.16 µM
[28] = second compound 1 µM, first compound 10 µM
[29] = second compound 3.16 µM, first compound 0.1 µM
[30] = second compound 3.16 µM, first compound 1 µM
[31] = second compound 3.16 µM, first compound 3.16 µM
[32] = second compound 3.16 µM, first compound 10 µM
[33] = second compound 10 µM, first compound 0.1 µM
[34] = second compound 10 µM, first compound 1 µM
[35] = second compound 10 µM, first compound 3.16 µM
[36] = second compound 10 µM, first compound 10 µM
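Further: spheroids exposed to drugs for seven days.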
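Wherever viability, T/C is given: 100% = DMSO vehicle control viability.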

Structure (SMILES): CC[C@@]1(O)C(=O)OCc2c1cc1n(c2=O)Cc2cc3c(CN(C)C)c(O)ccc3nc2-1 + Cc1[nH]c2ccc(F)cc2c1-c1nc2c3cccnc3c3ncccc3c2[nH]1
- IC50 (second compound 0.0316 µM): > 316 nM
- IC50 (second compound 0.1 µM): > 316 nM
- IC50 (second compound 0.316 µM): > 316 nM
- IC50 (second compound 1 µM): > 316 nM
- IC50 (second compound 3.16 µM): < 0.999 nM
- IC50 (second compound 10 µM): < 0.999 nM
- viability, T/C (second compound 0.0316 µM, first compound 0.000999 µM): 83.1%
- viability, T/C (second compound 0.0316 µM, first compound 0.00316 µM): 76.6%
- viability, T/C (second compound 0.0316 µM, first compound 0.00999 µM): 80.8%
- viability, T/C [1]: 89.2%
- viability, T/C (second compound 0.0316 µM, first compound 0.0999 µM): 92%
- viability, T/C [2]: 91.5%
- viability, T/C (second compound 0.1 µM, first compound 0.000999 µM): 93.4%
- viability, T/C (second compound 0.1 µM, first compound 0.00316 µM): 102%
- viability, T/C (second compound 0.1 µM, first compound 0.00999 µM): 102%
- viability, T/C [3]: 87%
- viability, T/C (second compound 0.1 µM, first compound 0.0999 µM): 88.2%
- viability, T/C [4]: 96.9%
- viability, T/C (second compound 0.316 µM, first compound 0.000999 µM): 78.7%
- viability, T/C (second compound 0.316 µM, first compound 0.00316 µM): 88.4%
- viability, T/C (second compound 0.316 µM, first compound 0.00999 µM): 82.7%
- viability, T/C [5]: 89.6%
- viability, T/C (second compound 0.316 µM, first compound 0.0999 µM): 99.6%
- viability, T/C [6]: 82.8%
- viability, T/C (second compound 1 µM, first compound 0.000999 µM): 71.2%
- viability, T/C (second compound 1 µM, first compound 0.00316 µM): 78.4%
- viability, T/C (second compound 1 µM, first compound 0.00999 µM): 76.2%
- viability, T/C [7]: 67.9%
- viability, T/C (second compound 1 µM, first compound 0.0999 µM): 58.2%
- viability, T/C [8]: 77.7%
- viability, T/C (second compound 3.16 µM, first compound 0.000999 µM): 48.4%
- viability, T/C (second compound 3.16 µM, first compound 0.00316 µM): 54.4%
- viability, T/C (second compound 3.16 µM, first compound 0.00999 µM): 48.5%
- viability, T/C [9]: 51.6%
- viability, T/C (second compound 3.16 µM, first compound 0.0999 µM): 61.9%
- viability, T/C [10]: 58.3%
- viability, T/C (second compound 10 µM, first compound 0.000999 µM): 46%
- viability, T/C (second compound 10 µM, first compound 0.00316 µM): 40.5%
- viability, T/C (second compound 10 µM, first compound 0.00999 µM): 53.9%
- viability, T/C [11]: 58%
- viability, T/C (second compound 10 µM, first compound 0.0999 µM): 50.7%
- viability, T/C [12]: 46.7%

Structure (SMILES): CC1COCCN1c1cc(C2(O)CC3CCC(C2)O3)c2cnn(-c3ccn[nH]3)c2n1 (stereo not drawn) + Cc1cnc(CNC(=O)c2c(=O)c3ccc(N4CCCN(C)CC4)nc3n3c2sc2ccccc23)cn1
- IC50 (second compound 0.0316 µM): 3100 nM
- IC50 (second compound 0.1 µM): 3560 nM
- IC50 (second compound 0.316 µM): 1470 nM
- IC50 (second compound 1 µM): 1020 nM
- IC50 (second compound 3.16 µM): 642 nM
- IC50 (second compound 10 µM): 271 nM
- viability, T/C [1]: 81%
- viability, T/C [13]: 61.9%
- viability, T/C [2]: 79.2%
- viability, T/C [14]: 50.7%
- viability, T/C [15]: 52.1%
- viability, T/C [16]: 40.3%
- viability, T/C [3]: 79.7%
- viability, T/C [17]: 80.7%
- viability, T/C [4]: 60.6%
- viability, T/C [18]: 63.5%
- viability, T/C [19]: 56.3%
- viability, T/C [20]: 35.8%
- viability, T/C [5]: 71.1%
- viability, T/C [21]: 85.3%
- viability, T/C [6]: 62.6%
- viability, T/C [22]: 50.6%
- viability, T/C [23]: 48.7%
- viability, T/C [24]: 32.9%
- viability, T/C [7]: 68.8%
- viability, T/C [25]: 75%
- viability, T/C [8]: 50.4%
- viability, T/C [26]: 50%
- viability, T/C [27]: 44.6%
- viability, T/C [28]: 24.9%
- viability, T/C [9]: 55.7%
- viability, T/C [29]: 59.7%
- viability, T/C [10]: 56.4%
- viability, T/C [30]: 44.8%
- viability, T/C [31]: 35.9%
- viability, T/C [32]: 24.6%
- viability, T/C [11]: 63.2%
- viability, T/C [33]: 60.1%
- viability, T/C [12]: 46.9%
- viability, T/C [34]: 41.7%
- viability, T/C [35]: 35.6%
- viability, T/C [36]: 20%

Structure (SMILES): CC(C)(O)C1CCC(Nc2ccc3ncc(-c4cccc(C(F)(F)F)c4)n3n2)CC1 (stereo not drawn) + Cc1[nH]c2ccc(F)cc2c1-c1nc2c3cccnc3c3ncccc3c2[nH]1
- IC50 (second compound 0.0316 µM): 2150 nM
- IC50 (second compound 0.1 µM): 922 nM
- IC50 (second compound 0.316 µM): 558 nM
- IC50 (second compound 1 µM): < 31.6 nM
- IC50 (second compound 3.16 µM): < 31.6 nM
- IC50 (second compound 10 µM): < 31.6 nM
- viability, T/C [1]: 78.5%
- viability, T/C [13]: 68.9%
- viability, T/C [2]: 72.2%
- viability, T/C [14]: 54.3%
- viability, T/C [15]: 46.7%
- viability, T/C [16]: 48.8%
- viability, T/C [3]: 73.3%
- viability, T/C [17]: 71%
- viability, T/C [4]: 75.6%
- viability, T/C [18]: 48.2%
- viability, T/C [19]: 42.2%
- viability, T/C [20]: 43.7%
- viability, T/C [5]: 56.8%
- viability, T/C [21]: 61%
- viability, T/C [6]: 64.2%
- viability, T/C [22]: 39%
- viability, T/C [23]: 34.8%
- viability, T/C [24]: 40.9%
- viability, T/C [7]: 46.4%
- viability, T/C [25]: 39.4%
- viability, T/C [8]: 40%
- viability, T/C [26]: 25.2%
- viability, T/C [27]: 26.6%
- viability, T/C [28]: 24.5%
- viability, T/C [9]: 17.1%
- viability, T/C [29]: 14.1%
- viability, T/C [10]: 17.6%
- viability, T/C [30]: 16.2%
- viability, T/C [31]: 10.1%
- viability, T/C [32]: 7.57%
- viability, T/C [11]: 39.4%
- viability, T/C [33]: 38%
- viability, T/C [12]: 33.9%
- viability, T/C [34]: 30.9%
- viability, T/C [35]: 13.7%
- viability, T/C [36]: 10.8%

Structure (SMILES): O=C(NO)c1cnc(N2CCN(S(=O)(=O)c3ccc4ccccc4c3)CC2)nc1 + Cc1[nH]c2ccc(F)cc2c1-c1nc2c3cccnc3c3ncccc3c2[nH]1
- IC50 (second compound 0.0316 µM): 427 nM
- IC50 (second compound 0.1 µM): 372 nM
- IC50 (second compound 0.316 µM): 360 nM
- IC50 (second compound 1 µM): 102 nM
- IC50 (second compound 3.16 µM): < 31.6 nM
- IC50 (second compound 10 µM): < 31.6 nM
- viability, T/C [1]: 87.1%
- viability, T/C [13]: 86%
- viability, T/C [2]: 66.7%
- viability, T/C [14]: 2.71%
- viability, T/C [15]: 0.44%
- viability, T/C [16]: 0.48%
- viability, T/C [3]: 83.2%
- viability, T/C [17]: 108%
- viability, T/C [4]: 57.9%
- viability, T/C [18]: 5.03%
- viability, T/C [19]: 0.38%
- viability, T/C [20]: 0.83%
- viability, T/C [5]: 50.4%
- viability, T/C [21]: 71.8%
- viability, T/C [6]: 56.1%
- viability, T/C [22]: 2.35%
- viability, T/C [23]: 2.07%
- viability, T/C [24]: 0.4%
- viability, T/C [7]: 58.8%
- viability, T/C [25]: 41.5%
- viability, T/C [8]: 42.8%
- viability, T/C [26]: 3.96%
- viability, T/C [27]: 1.07%
- viability, T/C [28]: 0.62%
- viability, T/C [9]: 17.4%
- viability, T/C [29]: 17%
- viability, T/C [10]: 14.8%
- viability, T/C [30]: 1.23%
- viability, T/C [31]: 1.33%
- viability, T/C [32]: 0.42%
- viability, T/C [11]: 26.4%
- viability, T/C [33]: 26.6%
- viability, T/C [12]: 22.1%
- viability, T/C [34]: 3.12%
- viability, T/C [35]: 1.25%
- viability, T/C [36]: 0.61%
